Assay results from patent US12251445B2, “Gamma-hydroxybutyrate delivering compounds and processes for making and using them” (Zevra Therapeutics, Inc., priority 2022, dated 2025).

Experiment: Pharmacokinetics of GHB in plasma after oral gavage of GHB delivering compounds in rats
Conditions: vehicle water, mean conjugate/mean comparator
[1] = molar equivalent of 100 mg/kg NaGHB
[2] = dose equivalent to 80 mg/kg NaGHB

| SMILES | % AUC0-4 hr vs study comparator sodium oxybate [1] [%] | % Cmax vs study comparator sodium oxybate [1] [%] | % AUC0-4 hr vs study comparator sodium oxybate [2] [%] | % Cmax vs study comparator sodium oxybate [2] [%] |
| --- | --- | --- | --- | --- |
| O=C1CCCO1 [GBL] | 27 | 70 | – | – |
| CCOC(=O)OCCCC(=O)O [O-(ethoxycarbonyl)-GHB] | – | – | 54 | 51 |
